Measured values: patent publication US12371428B2 (Exelixis, Inc., priority 2019, dated 2025)

Tests used:
[1] = biological target: Human MET (residues 956-1390) (Homo sapiens (Human), UniProt P08581); experiment: Human Met kinase assay, HTRF KinEase (Example D-2); type: biochemical; conditions: protocol of Example D-2 (other compounds); read-out: c-Met IC50
Method in brief: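 MET kinase domain (956-1390), 0.1 ng/well, in buffer with 5 mM MgCl2, 1 mM DTT and 1 mM MnCl2, phosphorylated a biotinylated peptide at ATP Km for 40 min at RT; 10 concentrations, 3% DMSO final. EDTA-stopped HTRF read after 60 min; IC50 from a 4-parameter logistic fit.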

[2] = biological target: Mer (phospho-Mer, MERTK-transfected 293A cells) (Homo sapiens (Human), UniProt Q12866); experiment: Mer autophosphorylation ELISA in transient transfected 293A cells (Example H); type: cell-based; conditions: cellular activity; Mer autophosphorylation ELISA in transient transfected 293A cells
Method in brief: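 293A cells transiently transfected with human MERTK were treated 1 h in serum-free medium with an 8-point compound dilution (0.3% DMSO final). Lysates were assayed by phospho-Mer sandwich ELISA against a phospho-Mer standard; IC50 came from a 4-parameter logistic fit, normalised to DMSO (100%) and reference-inhibitor (0%) controls.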

Mer (phospho-Mer, MERTK-transfected 293A cells), sequence (Q12866 21-999): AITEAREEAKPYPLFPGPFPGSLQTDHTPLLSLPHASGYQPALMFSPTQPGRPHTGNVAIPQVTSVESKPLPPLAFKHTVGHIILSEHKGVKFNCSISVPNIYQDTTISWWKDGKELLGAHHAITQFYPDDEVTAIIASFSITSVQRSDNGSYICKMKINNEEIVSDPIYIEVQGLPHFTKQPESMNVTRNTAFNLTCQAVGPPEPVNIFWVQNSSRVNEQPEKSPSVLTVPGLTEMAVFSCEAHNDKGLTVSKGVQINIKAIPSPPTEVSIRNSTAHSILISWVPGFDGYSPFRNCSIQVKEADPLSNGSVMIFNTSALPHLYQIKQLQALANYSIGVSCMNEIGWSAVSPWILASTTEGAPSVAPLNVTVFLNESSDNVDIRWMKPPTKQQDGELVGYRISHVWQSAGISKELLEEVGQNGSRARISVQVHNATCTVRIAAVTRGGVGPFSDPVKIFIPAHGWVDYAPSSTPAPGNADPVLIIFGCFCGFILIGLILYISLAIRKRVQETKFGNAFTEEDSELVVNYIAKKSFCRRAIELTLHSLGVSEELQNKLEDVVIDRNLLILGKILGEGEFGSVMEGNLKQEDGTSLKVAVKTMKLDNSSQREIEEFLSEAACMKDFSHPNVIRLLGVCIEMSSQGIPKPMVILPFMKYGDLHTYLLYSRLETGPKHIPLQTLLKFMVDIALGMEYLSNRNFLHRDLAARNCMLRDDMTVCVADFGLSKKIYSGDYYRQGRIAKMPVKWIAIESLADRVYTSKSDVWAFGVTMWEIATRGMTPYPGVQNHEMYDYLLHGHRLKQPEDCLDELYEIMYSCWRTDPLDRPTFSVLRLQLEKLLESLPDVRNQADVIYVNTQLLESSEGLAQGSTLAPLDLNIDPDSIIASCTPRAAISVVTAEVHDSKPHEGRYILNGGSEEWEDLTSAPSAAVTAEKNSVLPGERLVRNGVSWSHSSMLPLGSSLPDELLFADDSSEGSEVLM
Human MET (residues 956-1390), sequence (P08581 956-1390): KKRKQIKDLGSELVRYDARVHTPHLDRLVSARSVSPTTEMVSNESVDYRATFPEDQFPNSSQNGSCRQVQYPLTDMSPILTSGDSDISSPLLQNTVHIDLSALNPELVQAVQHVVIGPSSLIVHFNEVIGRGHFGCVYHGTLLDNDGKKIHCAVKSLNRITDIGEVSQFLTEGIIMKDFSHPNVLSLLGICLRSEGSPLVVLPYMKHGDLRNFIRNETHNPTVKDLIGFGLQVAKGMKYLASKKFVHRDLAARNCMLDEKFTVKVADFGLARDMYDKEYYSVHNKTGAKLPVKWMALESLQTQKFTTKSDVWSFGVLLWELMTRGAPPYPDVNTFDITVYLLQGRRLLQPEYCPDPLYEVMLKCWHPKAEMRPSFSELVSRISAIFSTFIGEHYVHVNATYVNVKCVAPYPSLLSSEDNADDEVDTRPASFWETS

Row | Compound | IC50 [1] [nM] | IC50 [2] [nM]
1 | CCn1cc(-c2ccc(F)cc2)c(=O)c(C(=O)Nc2ccc(Oc3ccnc4cc(OC)c(OC)nc34)c(F)c2)c1C [Compound 82, N-[4-[(6,7-Dimethoxy-1,5-naphthyridin-4-yl)oxy]-3-fluorophenyl]-1-ethyl-5-(4-fluorophenyl)-2-methyl-4-oxopyridine-3-carboxamide] | < 100 | < 100
2 | COc1cnc2c(Oc3ccc(NC(=O)c4ccc(C)n(-c5ccc(F)cc5)c4=O)cc3F)ccnc2c1 [Compound 83, N-[3-Fluoro-4-[(7-methoxy-1,5-naphthyridin-4-yl)oxy]phenyl]-1-(4-fluorophenyl)-6-methyl-2-oxopyridine-3-carboxamide] | < 100 | < 100
3 | COc1ccc2nccc(Oc3ccc(NC(=O)c4ccc(C)n(-c5ccc(F)cc5C)c4=O)cc3F)c2n1 [Compound 85, N-[3-Fluoro-4-[(6-methoxy-1,5-naphthyridin-4-yl)oxy]phenyl]-1-(4-fluoro-2-methylphenyl)-6-methyl-2-oxopyridine-3-carboxamide] | 100 to 300 | < 100
4 | COc1cc2nccc(Oc3ccc(NC(=O)c4cc(C#N)c(C)n(-c5ccc(F)cc5)c4=O)cc3F)c2nc1OC [Compound 87, 5-Cyano-N-[4-[(6,7-dimethoxy-1,5-naphthyridin-4-yl)oxy]-3-fluorophenyl]-1-(4-fluorophenyl)-6-methyl-2-oxopyridine-3-carboxamide] | < 100 | < 100
5 | COc1cc2nccc(Oc3ccc(NC(=O)c4n[nH]c(C)c(-c5ccc(F)cc5)c4=O)cc3F)c2nc1OC [Compound 88, N-[4-[(6,7-Dimethoxy-1,5-naphthyridin-4-yl)oxy]-3-fluorophenyl]-5-(4-fluorophenyl)-6-methyl-4-oxo-1H-pyridazine-3-carboxamide] | < 100 | < 100
6 | COc1ccc2nccc(Oc3ccc(NC(=O)c4n[nH]c(C)c(-c5ccc(F)cc5)c4=O)cc3F)c2n1 [Compound 89, N-[3-Fluoro-4-[(6-methoxy-1,5-naphthyridin-4-yl)oxy]phenyl]-5-(4-fluorophenyl)-6-methyl-4-oxo-1H-pyridazine-3-carboxamide] | < 100 | < 100
7 | COc1cc2nccc(Oc3ccc(NC(=O)c4ncc(C)n(-c5ccc(F)cc5)c4=O)cc3F)c2nc1OC [Compound 93, N-[4-[(6,7-Dimethoxy-1,5-naphthyridin-4-yl)oxy]-3-fluorophenyl]-4-(4-fluorophenyl)-5-methyl-3-oxopyrazine-2-carboxamide] | < 100 | < 100
8 | COc1cc2nccc(Oc3ccc(NC(=O)c4nc(C)c(C)n(-c5ccc(F)cc5)c4=O)cc3F)c2nc1OC [Compound 95, N-[4-[(6,7-Dimethoxy-1,5-naphthyridin-4-yl)oxy]-3-fluorophenyl]-4-(4-fluorophenyl)-5,6-dimethyl-3-oxopyrazine-2-carboxamide] | < 100 | < 100
9 | COc1cc2nccc(Oc3ccc(NC(=O)c4ncnc(-c5ccc(F)cc5)c4O)cc3F)c2nc1OC [Compound 96, N-[4-[(6,7-Dimethoxy-1,5-naphthyridin-4-yl)oxy]-3-fluorophenyl]-6-(4-fluorophenyl)-5-hydroxypyrimidine-4-carboxamide] | < 100 | < 100
10 | COc1cc2nccc(Oc3ncc(NC(=O)c4cn(-c5cnn(C)c5)cc(-c5ccc(F)cc5)c4=O)cc3F)c2cc1OC [Compound 401, N-[6-(6,7-dimethoxyquinolin-4-yl)oxy-5-fluoropyridin-3-yl]-5-(4-fluorophenyl)-1-(1-methylpyrazol-4-yl)-4-oxopyridine-3-carboxamide] | < 100 | < 100
11 | CCOc1c(-c2ccc(F)cc2)cnc(C)c1C(=O)Nc1ccc(Oc2ccnc3cc(OC)c(OC)nc23)c(F)c1 [Compound 403, N-[4-[(6,7-dimethoxy-1,5-naphthyridin-4-yl)oxy]-3-fluorophenyl]-4-ethoxy-5-(4-fluorophenyl)-2-methylpyridine-3-carboxamide] | 100 to 300 | < 100
12 | COc1cc2nccc(Oc3ccc(NC(=O)c4c5n(cc(-c6ccc(F)cc6)c4=O)CCC5)cc3)c2nc1OC [Compound 407, N-[4-[(6,7-dimethoxy-1,5-naphthyridin-4-yl)oxy]phenyl]-6-(4-fluorophenyl)-7-oxo-2,3-dihydro-1H-indolizine-8-carboxamide] | < 100 | < 100

Results, then the molecule that gave them:

Row | IC50 [1] [nM] | IC50 [2] [nM] | Compound
13 | < 100 | < 100 | COc1ccc2nccc(Oc3ccc(NC(=O)c4ccc(C)n(-c5ccc(F)cc5)c4=O)cc3F)c2n1 [Compound 84, N-[3-Fluoro-4-[(6-methoxy-1,5-naphthyridin-4-yl)oxy]phenyl]-1-(4-fluorophenyl)-6-methyl-2-oxopyridine-3-carboxamide]
14 | < 100 | < 100 | COc1cc2nccc(Oc3ccc(NC(=O)c4cc(C(C)=O)c(C)n(-c5ccc(F)cc5)c4=O)cc3F)c2nc1OC [Compound 86, 5-Acetyl-N-[4-[(6,7-dimethoxy-1,5-naphthyridin-4-yl)oxy]-3-fluorophenyl]-1-(4-fluorophenyl)-6-methyl-2-oxopyridine-3-carboxamide]
15 | < 100 | < 100 | COc1cc2nccc(Oc3ccc(NC(=O)c4n[nH]c(C)c(-c5ccc(F)cc5C)c4=O)cc3F)c2nc1OC [Compound 90, N-[4-[(6,7-Dimethoxy-1,5-naphthyridin-4-yl)oxy]-3-fluorophenyl]-5-(4-fluoro-2-methylphenyl)-6-methyl-4-oxo-1H-pyridazine-3-carboxamide]
16 | < 100 | < 100 | COc1cc2nccc(Oc3ccc(NC(=O)c4nn(C)c(C)c(-c5ccc(F)cc5)c4=O)cc3)c2nc1OC [Compound 91, N-[4-[(6,7-Dimethoxy-1,5-naphthyridin-4-yl)oxy]phenyl]-5-(4-fluorophenyl)-1,6-dimethyl-4-oxopyridazine-3-carboxamide]
17 | < 100 | < 100 | COc1cc2nccc(Oc3ccc(NC(=O)c4nn(C)c(C)c(-c5ccc(F)cc5)c4=O)cc3F)c2nc1OC [Compound 92, N-[4-[(6,7-Dimethoxy-1,5-naphthyridin-4-yl)oxy]-3-fluorophenyl]-5-(4-fluorophenyl)-1,6-dimethyl-4-oxopyridazine-3-carboxamide]
18 | < 100 | < 100 | COc1cnc2c(Oc3ccc(NC(=O)c4ncc(C)n(-c5ccc(F)cc5)c4=O)cc3F)ccnc2c1 [Compound 94, N-[3-Fluoro-4-[(7-methoxy-1,5-naphthyridin-4-yl)oxy]phenyl]-4-(4-fluorophenyl)-5-methyl-3-oxopyrazine-2-carboxamide]
19 | < 100 | < 100 | COc1cc2nccc(Oc3ncc(NC(=O)c4cn(-c5ccn(C)n5)cc(-c5ccc(F)cc5)c4=O)cc3F)c2cc1OC [Compound 402, N-[6-(6,7-dimethoxyquinolin-4-yl)oxy-5-fluoropyridin-3-yl]-5-(4-fluorophenyl)-1-(1-methylpyrazol-3-yl)-4-oxopyridine-3-carboxamide]
20 | < 100 | < 100 | CNC(=O)c1cc2c(Oc3ccc(NC(=O)c4c5n(cc(-c6ccc(F)cc6)c4=O)CCC5)cc3F)ccnc2cc1OC [Compound 408, 4-[2-fluoro-4-[[6-(4-fluorophenyl)-7-oxo-2,3-dihydro-1H-indolizine-8-carbonyl]amino]phenoxy]-7-methoxy-N-methylquinoline-6-carboxamide]
